Experiment: xn = mol fraction of the nth substance listed
Details: 100 kPa, Liquid; for viscosity: Falling or rolling sphere viscometry; for mass density: Vibrating tube method

CCCCCCCCCCCC [dodecane] + CCCCO
Details	mass density [kg/m3]	viscosity [mPa·s]
293.15 K, x1 = 0.1045	794.67	2.478
293.15 K, x1 = 0.2008	784.43	2.167
293.15 K, x1 = 0.3002	776.26	1.935
293.15 K, x1 = 0.3985	769.8	1.772
293.15 K, x1 = 0.4995	764.28	1.64
293.15 K, x1 = 0.5978	759.94	1.561
293.15 K, x1 = 0.7012	755.99	1.494
293.15 K, x1 = 0.7671	754.1	1.476
293.15 K, x1 = 0.8773	751.22	1.458
293.15 K, x1 = 1	748.83	1.491
298.15 K, x1 = 0.1045	790.86	2.183
298.15 K, x1 = 0.2008	780.62	1.919
298.15 K, x1 = 0.3002	772.45	1.722
298.15 K, x1 = 0.3985	765.97	1.588
298.15 K, x1 = 0.4995	760.49	1.477
298.15 K, x1 = 0.5978	756.17	1.414
298.15 K, x1 = 0.7012	752.24	1.359
298.15 K, x1 = 0.7671	750.38	1.345
298.15 K, x1 = 0.8773	747.52	1.331
298.15 K, x1 = 1	745.22	1.366
303.15 K, x1 = 0.1045	787.01	1.934
303.15 K, x1 = 0.2008	776.76	1.709
303.15 K, x1 = 0.3002	768.59	1.543
303.15 K, x1 = 0.3985	762.12	1.43
303.15 K, x1 = 0.4995	756.67	1.338
303.15 K, x1 = 0.5978	752.37	1.287
303.15 K, x1 = 0.7012	748.47	1.242
303.15 K, x1 = 0.7671	746.62	1.231
303.15 K, x1 = 0.8773	743.81	1.22
303.15 K, x1 = 1	741.59	1.257
308.15 K, x1 = 0.1045	783.13	1.721
308.15 K, x1 = 0.2008	772.86	1.529
308.15 K, x1 = 0.3002	764.7	1.388
308.15 K, x1 = 0.3985	758.24	1.295
308.15 K, x1 = 0.4995	752.82	1.218
308.15 K, x1 = 0.5978	748.54	1.177
308.15 K, x1 = 0.7012	744.67	1.141
308.15 K, x1 = 0.7671	742.85	1.132
308.15 K, x1 = 0.8773	740.07	1.124
308.15 K, x1 = 1	737.95	1.154
313.15 K, x1 = 0.1045	779.2	1.537
313.15 K, x1 = 0.2008	768.93	1.373
313.15 K, x1 = 0.3002	760.78	1.254
313.15 K, x1 = 0.3985	754.33	1.177
313.15 K, x1 = 0.4995	748.93	1.114
313.15 K, x1 = 0.5978	744.69	1.082
313.15 K, x1 = 0.7012	740.88	1.051
313.15 K, x1 = 0.7671	739.06	1.045
313.15 K, x1 = 0.8773	736.32	1.04
313.15 K, x1 = 1	734.31	1.076
318.15 K, x1 = 0.1045	775.23	1.379
318.15 K, x1 = 0.2008	764.95	1.239
318.15 K, x1 = 0.3002	756.81	1.138
318.15 K, x1 = 0.3985	750.39	1.075
318.15 K, x1 = 0.4995	745.02	1.022
318.15 K, x1 = 0.5978	740.81	0.997
318.15 K, x1 = 0.7012	737.02	0.972
318.15 K, x1 = 0.7671	735.24	0.968
318.15 K, x1 = 0.8773	732.55	0.964
318.15 K, x1 = 1	730.66	1.003
323.15 K, x1 = 0.1045	771.21	1.241
323.15 K, x1 = 0.2008	760.93	1.122
323.15 K, x1 = 0.3002	752.8	1.038
323.15 K, x1 = 0.3985	746.41	0.985
323.15 K, x1 = 0.4995	741.07	0.942
323.15 K, x1 = 0.5978	736.9	0.923
323.15 K, x1 = 0.7012	733.15	0.902
323.15 K, x1 = 0.7671	731.4	0.9
323.15 K, x1 = 0.8773	728.77	0.899
323.15 K, x1 = 1	727	0.936
328.15 K, x1 = 0.1045	767.14	1.121
328.15 K, x1 = 0.2008	756.86	1.02
328.15 K, x1 = 0.3002	748.75	0.949
328.15 K, x1 = 0.3985	742.38	0.906
328.15 K, x1 = 0.4995	737.08	0.871
328.15 K, x1 = 0.5978	732.96	0.856
328.15 K, x1 = 0.7012	729.25	0.84
328.15 K, x1 = 0.7671	727.53	0.839
328.15 K, x1 = 0.8773	724.96	0.839
328.15 K, x1 = 1	723.33	0.877
333.15 K, x1 = 0.1045	763.01	1.017
333.15 K, x1 = 0.2008	752.73	0.931
333.15 K, x1 = 0.3002	744.64	0.871
333.15 K, x1 = 0.3985	738.31	0.837
333.15 K, x1 = 0.4995	733.06	0.808
333.15 K, x1 = 0.5978	728.98	0.797
333.15 K, x1 = 0.7012	725.32	0.784
333.15 K, x1 = 0.7671	723.64	0.785
333.15 K, x1 = 0.8773	721.13	0.785
333.15 K, x1 = 1	719.65	0.823

C1CCC(C2CCCCC2)CC1 [1,1'-bicyclohexyl] + CCCCO
Details	mass density [kg/m3]	viscosity [mPa·s]
293.15 K, x1 = 0.1007	823.66	2.853
293.15 K, x1 = 0.2009	835.23	2.878
293.15 K, x1 = 0.3021	845.04	2.902
293.15 K, x1 = 0.4007	853.19	2.957
293.15 K, x1 = 0.5038	860.51	3.002
293.15 K, x1 = 0.5992	866.48	3.096
293.15 K, x1 = 0.7006	872.11	3.227
293.15 K, x1 = 0.7983	877.03	3.418
293.15 K, x1 = 0.8835	880.86	3.575
293.15 K, x1 = 1	886.05	4.003
298.15 K, x1 = 0.1007	819.86	2.507
298.15 K, x1 = 0.2009	831.42	2.527
298.15 K, x1 = 0.3021	841.24	2.548
298.15 K, x1 = 0.4007	849.39	2.603
298.15 K, x1 = 0.5038	856.73	2.648
298.15 K, x1 = 0.5992	862.71	2.734
298.15 K, x1 = 0.7006	868.37	2.851
298.15 K, x1 = 0.7983	873.33	3.02
298.15 K, x1 = 0.8835	877.19	3.158
298.15 K, x1 = 1	882.44	3.53
303.15 K, x1 = 0.1007	816.02	2.214
303.15 K, x1 = 0.2009	827.58	2.232
303.15 K, x1 = 0.3021	837.4	2.254
303.15 K, x1 = 0.4007	845.56	2.306
303.15 K, x1 = 0.5038	852.92	2.353
303.15 K, x1 = 0.5992	858.93	2.431
303.15 K, x1 = 0.7006	864.61	2.539
303.15 K, x1 = 0.7983	869.6	2.689
303.15 K, x1 = 0.8835	873.49	2.807
303.15 K, x1 = 1	878.84	3.137
308.15 K, x1 = 0.1007	812.14	1.963
308.15 K, x1 = 0.2009	823.71	1.982
308.15 K, x1 = 0.3021	833.53	2.006
308.15 K, x1 = 0.4007	841.7	2.054
308.15 K, x1 = 0.5038	849.08	2.102
308.15 K, x1 = 0.5992	855.12	2.179
308.15 K, x1 = 0.7006	860.84	2.273
308.15 K, x1 = 0.7983	865.87	2.411
308.15 K, x1 = 0.8835	869.8	2.513
308.15 K, x1 = 1	875.25	2.81
313.15 K, x1 = 0.1007	808.22	1.749
313.15 K, x1 = 0.2009	819.81	1.767
313.15 K, x1 = 0.3021	829.63	1.793
313.15 K, x1 = 0.4007	837.81	1.84
313.15 K, x1 = 0.5038	845.22	1.881
313.15 K, x1 = 0.5992	851.3	1.957
313.15 K, x1 = 0.7006	857.05	2.048
313.15 K, x1 = 0.7983	862.13	2.17
313.15 K, x1 = 0.8835	866.09	2.262
313.15 K, x1 = 1	871.66	2.532
318.15 K, x1 = 0.1007	804.27	1.563
318.15 K, x1 = 0.2009	815.86	1.582
318.15 K, x1 = 0.3021	825.69	1.61
318.15 K, x1 = 0.4007	833.9	1.656
318.15 K, x1 = 0.5038	841.34	1.704
318.15 K, x1 = 0.5992	847.45	1.769
318.15 K, x1 = 0.7006	853.25	1.853
318.15 K, x1 = 0.7983	858.37	1.966
318.15 K, x1 = 0.8835	862.38	2.047
318.15 K, x1 = 1	868.08	2.296
323.15 K, x1 = 0.1007	800.27	1.402
323.15 K, x1 = 0.2009	811.87	1.423
323.15 K, x1 = 0.3021	821.71	1.452
323.15 K, x1 = 0.4007	829.95	1.498
323.15 K, x1 = 0.5038	837.43	1.545
323.15 K, x1 = 0.5992	843.58	1.608
323.15 K, x1 = 0.7006	849.43	1.685
323.15 K, x1 = 0.7983	854.6	1.789
323.15 K, x1 = 0.8835	858.66	1.863
323.15 K, x1 = 1	864.5	2.092
328.15 K, x1 = 0.1007	796.21	1.263
328.15 K, x1 = 0.2009	807.82	1.285
328.15 K, x1 = 0.3021	817.69	1.315
328.15 K, x1 = 0.4007	825.97	1.36
328.15 K, x1 = 0.5038	833.49	1.407
328.15 K, x1 = 0.5992	839.69	1.466
328.15 K, x1 = 0.7006	845.59	1.54
328.15 K, x1 = 0.7983	850.82	1.635
328.15 K, x1 = 0.8835	854.93	1.702
328.15 K, x1 = 1	860.93	1.915
333.15 K, x1 = 0.1007	792.1	1.141
333.15 K, x1 = 0.2009	803.73	1.164
333.15 K, x1 = 0.3021	813.63	1.196
333.15 K, x1 = 0.4007	821.94	1.24
333.15 K, x1 = 0.5038	829.52	1.286
333.15 K, x1 = 0.5992	835.77	1.342
333.15 K, x1 = 0.7006	841.73	1.411
333.15 K, x1 = 0.7983	847.02	1.499
333.15 K, x1 = 0.8835	851.2	1.562
333.15 K, x1 = 1	857.35	1.762

Source: the NIST ThermoML archive (doi:10.1021/acs.jced.8b00438)
